One test concerns MX-1W. The test is described as follows: Cell survival assay (SRB), MX-1W. Particulars: Homo sapiens, MX1W, 72 h, 3 days. In kind it is cell-based. The text has this: (§1) Cells lines with previously known mechanisms of resistance. […] Res. 8: 207-218,1996); KB-3-1 (parental derived from an epidermoid carcinoma), KB-8.5, KB-V1 (Akiyama S-I, Fojo A, Hanover J A, Pastan I, Gottesman M M. Isolation and genetic characterization of human KB cell lines resistant to multiple drugs. Somatic Cell Mol. Gen., 11: 117-126,1985; Shen D-W, Cardarelli C, Hwang J, Cornwell M, Richert N, Ishii S, Pastan I, Gottesman MM. […] J. Biol. Chem., 261: 7762-7770, 1986); and HL-60 (parental derived from human leukemia) and HL60/AR (McGrath T., Center M. S. Adriamycin resistance in HL60 cells in the absence of detectable P-glycoprotein. Biochem. Res. Commun., 145:1171-1176,1987); A549 and A549.EpoB40 (He L., Yang C.-P.H., Horwitz S. B. Mutations in p-tubulin map to domains involved in regulation of microtubule stability in epothilone-resistant cell lines. Molecular Cancer Therapeutics. 1: 3-10, 2001). HCT-15 human colon carcinoma and DLD-1 human colon carcinoma are obtained from American Tissue Culture Collection. The MX-1W carcinoma is a Wyeth variant orginally obtained as MX-1 breast carcinoma from the National Cancer Institute. Cell lines selected for resistance to Representative Example 129. KB-3-1 cells are selected for resistance to Example 129 by chronically exposing cells to increasing concentrations of Example 129.
(§2) 2.2. Cell Survival Assay: Standard Pharmacological Test Procedure. The concentration of candidate inhibitor required to inhibit 50% of cell growth (IC50) is done according to previously reported methods. […] Compounds are serially diluted into media as 2× stocks and 100 μl added to cells in duplicate. Compounds are incubated with cells for 3 days. At the end of the incubation period the sulforhodamine B (SRB) assay, which measures protein content as an assessment of cell survival, is performed as described previously (Skehan P, Storeng R, Scudiero D, Monks A, McMahon J, Vistica D, Warren J T, Bokesch H, Kenney S, Boyd MR. New calorimetric cytotoxicity assay for anticancer-drug screening. J Natl Cancer Inst 1990 Jul 4;82(13):1107-12) with some modification as follows. For KB-3-1 cells with 20% FCS, media is gently decanted and replaced with 200 μl of serum-free media mixed with cold 50% TCA for a final concentration of 10% TCA. The plates are incubated for 1 hr at 4° C., followed by washing 5 times in cold distilled water, then air dried overnight. The fixed cells are stained for 10 min with 80 μl of 0.04% SRB solution prepared in 1% glacial acetic acid. Stain is discarded and plates washed 5 times in 1% glacial acetic acid, then air-dried until completely dry. Stained cell product is dissolved in 150 μl of 10 mM Trizma Base and placed on a shaker for 20 minutes until fully dissolved. Absorbance is read on a Victor V multi-label plate reader (Perkin Elmer, Gaithersburg, Md.).

For a further test, the system named is KM20. The test is described as follows: Cell survival assay (SRB), KM20. In kind it is cell-based. Conditions: 72 h. As for the experimental part:
(§3) 2.2. Cell Survival Assay: Standard Pharmacological Test Procedure. […] Compounds are incubated with cells for 3 days.

For the next test, the system named is SW620. In words: Cell survival assay (SRB), SW620. In kind it is cell-based. Particulars: Homo sapiens, SW-620, 72 h. As for the experimental part:
as §3

Another test concerns HL60. The test is described as follows: Cell survival assay (MTS), HL60. In kind it is cell-based. Conditions: Homo sapiens.
Another test concerns A375. In words: Cell survival assay (SRB), A375. In kind it is cell-based. Conditions: Homo sapiens, A-375, 72 h. As for the experimental part: as §3
Another test deals with SK-Mel-2. In words: Cell survival assay (SRB), SK-Mel-2. Format: cell-based. Conditions: Homo sapiens. As for the experimental part: as §3
A further test deals with A549. In words: Cell survival assay (SRB), A549. Format: cell-based. Particulars: Homo sapiens.
From the text: as §1, with “KB-3-1 cells are selected for resistance to Example 129 by chronically exposing cells to increasing concentrations of Example 129.” left out
2.2. […] Absorbance is read on a Victor V multi-label plate reader (Perkin Elmer, Gaithersburg, Md.).

The subject of another test is SKOV3. In words: Cell survival assay (SRB), SKOV3. Format: cell-based. Conditions: Homo sapiens, SK-OV-3, 72 h. As for the experimental part:
as §3

Another test concerns Capan-1. In words: Cell survival assay (SRB), Capan-1. Particulars: Homo sapiens. In kind it is cell-based. As for the experimental part:
as §3

A further test deals with PC3MM2. In words: Cell survival assay (SRB), PC3MM2. Conditions: Homo sapiens. Format: cell-based. As for the experimental part:
as §3

In a further test the test system is A431. In words: Cell survival assay (SRB), A431. Format: cell-based. Conditions: Homo sapiens, A-431, 72 h. As for the experimental part: as §3
Another test has as its system HL60/AR (MRP1). The test is described as follows: Cell survival assay, HL60/AR (MRP1). Particulars: for IC50: Homo sapiens, HL-60/AR, read-out: HL60/AR (MRP1) IC50, nM (N).
From the text: as §1, §2
J. Cell Science,113: 2011-2021, 2000). It was unknown whether the hemiasterlin family of peptides interact with these drug pumps.

The subject of another test is KB-PTX-15+099. The test is described as follows: Cell survival assay, KB-PTX-15+099 (paclitaxel-resistant, non-MDR). Particulars: for IC50: Homo sapiens. Format: cell-based, human.
A further test has as its system DLD-1 tumor. The test is described as follows: Growth of tumors in nude mice, DLD-1 xenograft. In kind it is in vivo. Particulars: days 1,5,9. The text has this: 2.4. Growth of Tumors in Nude Mice.

Where two headings read alike, the source gives them in different places. Marks after values point to notes of the source that are not given here.

This is an account of results in patent US20040121965A1, “Method of treating resistant tumors” (Wyeth Holdings Corporation, priority 2002, published 2004).

Regarding `CN[C@H](C(=O)N[C@H](C(=O)N(C)[C@H](/C=C(\C)C(=O)O)C(C)C)C(C)(C)C)C(C)(C)c1ccccc1` [Example 129, N,β,β-trimethyl-L-phenylalanyl-N^1-[(1S,2E)-3-carboxy-1-isopropylbut-2-enyl]-N^1,3-dimethyl-L-valinamide], the IC50 in the test on MX-1W (MX-1W, breast, SRB staining) was 1.8 ± 0.6 nM; in the test with MX-1W (MX-1W, SRB, vehicle control (DMSO), no MDR-1 inhibitor), 1.4 nM; in the test on MX-1W (read-out: IC50 + 5.0 uM MDR-1 inhibitor, MX-1W, SRB, + 5.0 uM 7-(6,7-dimethoxy-3,4-dihydro-1H-isoquinolin-2-yl)-2(3,4-dimethoxy-phenyl)-2-p-tolysulfanyl-heptanenitrile), 1.3 nM; in the test with KM20 it was 1.8 ± 0.6 nM; in the test on SW620 it was 3.6 ± 0.8 nM; in the test on HL60 (HL-60, 72 h), 0.21 ± 0.05 nM. Moreover, the IC50 amounted to 0.212 ± 0.048 nM in the test on HL60 (HL-60, read-out: HL60 IC50, nM (N)); 1.1 ± 0.8 nM with A375; 1.7 ± 0.5 nM in the test on SK-Mel-2 (SK-MEL-2, 72 h); 1.1 ± 0.5 nM with A549 (A549, 72 h); 1.7 nM with SKOV3; 1.4 nM with Capan-1 (CAPAN-1, 72 h). The IC50 came to 1.9 ± 0.1 nM in the test with PC3MM2 (PC3MM2, 72 h); 2.4 ± 0.4 nM in the test with A431; 0.245 ± 0.45 nM in the test with HL60/AR (MRP1); 0.182 ± 0.028 nM in the test with KB-PTX-15+099 (read-out: KB-PTX-15+099 IC50 (nM)). The “RR, relative resistance” value in the test with HL60/AR (MRP1) (IC50 HL60/AR / IC50 HL60) is 1.2. Besides, the “Average Relative Resistance (RR)” value in the test with KB-PTX-15+099 (IC50 KB-PTX-15+099 / IC50 KB-3-1, less than 1 = increased sensitivity) is “(0.30)”. Besides, the “increased sensitivity of KB-PTX-15+099 cells” value in the test on KB-PTX-15+099 (vs KB-3-1) is 3.4 fold. The “% T/C on day 7” value with DLD-1 tumor (Example 129 1.6 mg/kg IV) is reported as 22** %. Besides, in the test with DLD-1 tumor (Example 129 1.6 mg/kg IV), the “% T/C on day 14” value is recorded as 20** %. Moreover, the “% T/C on day 21” value in the test on DLD-1 tumor (Example 129 1.6 mg/kg IV) came to 44%.
In the case of `CC(=O)O[C@H]1C(=O)[C@@]2(C)[C@H]([C@H](OC(=O)c3ccccc3)[C@]3(O)C[C@H](OC(=O)[C@H](O)[C@@H](NC(=O)c4ccccc4)c4ccccc4)C(C)=C1C3(C)C)[C@]1(OC(C)=O)CO[C@@H]1C[C@@H]2O` [paclitaxel, reference compound], the IC50 with MX-1W (MX-1W, breast, SRB staining, read-out: IC50) amounted to 15.4 ± 2.9 nM; in the test on MX-1W (MX-1W, SRB, + 5.0 uM 7-(6,7-dimethoxy-3,4-dihydro-1H-isoquinolin-2-yl)-2(3,4-dimethoxy-phenyl)-2-p-tolysulfanyl-heptanenitrile, read-out: IC50 + 5.0 uM MDR-1 inhibitor) it was 8.3 nM; in the test on MX-1W (MX-1W, SRB, vehicle control (DMSO), no MDR-1 inhibitor, read-out: IC50), 138 nM; in the test with KM20 (KM20, colon, 3 days, SRB staining, read-out: IC50) it was 8.9 ± 1.9 nM; in the test on SW620 (SW620, colon, 3 days, SRB staining, read-out: IC50) it was 18 nM; with HL60 (HL-60, 72 h, HL60, leukemia, 3 days, MTS assay, read-out: IC50) it was 1.8 nM. Also, the IC50 stood at 1.8 nM in the test with HL60 (HL-60, HL60 parental, Table 5, read-out: HL60 IC50, nM (N)); 14.1 ± 7.3 nM with A375 (A375, melanoma, 3 days, SRB staining, read-out: IC50); 3.2 ± 1.8 nM with SK-Mel-2 (72 h, SK-Mel-2, melanoma, 3 days, SRB staining, read-out: IC50); 8.8 ± 3.6 nM in the test on A549 (72 h, A549, NSCLC, 3 days, SRB staining, read-out: IC50); 9 nM in the test with SKOV3 (SKOV3, ovarian, 3 days, SRB staining, read-out: IC50); 4 nM in the test with Capan-1 (72 h, Capan-1, pancreatic, 3 days, SRB staining, read-out: IC50). In addition, the IC50 is 8.7 nM in the test with PC3MM2 (72 h, PC3MM2, prostate, 3 days, SRB staining, read-out: IC50); 7.6 nM in the test on A431 (A431, squamous, 3 days, SRB staining, read-out: IC50); 5.2 nM in the test with HL60/AR (MRP1); 57.8 ± 9.6 nM in the test with KB-PTX-15+099 (KB-PTX-15+099, Table 6, read-out: KB-PTX-15+099 IC50). Further, in the test with KB-PTX-15+099 (vs KB-3-1), the “resistance of KB-PTX-15+099 cells” value worked out at 21 fold. In the test on DLD-1 tumor (paclitaxel 60 mg/kg IV), the “% T/C on day 7” value came out at 71%. The “% T/C on day 14” value with DLD-1 tumor (paclitaxel 60 mg/kg IV) turned out to be 73%.
